Results taken from publication PMC2397535 (Breast Cancer Research : BCR, 2008).

Key:
[1] = test system: BT-474; assay: antiproliferative effect (GI50), breast cancer cell line; format: cell-based; conditions: Homo sapiens
[2] = test system: BT20; assay: as above; format: cell-based; conditions: Homo sapiens, BT-20
[3] = test system: MDA-MB-157; assay: as above; format: cell-based; conditions: Homo sapiens
[4] = test system: MDA-MB-231; assay: as above; format: cell-based; conditions: Homo sapiens
[5] = test system: MDA-MB-468; assay: as above; format: cell-based; conditions: Homo sapiens
[6] = test system: SkBr3; assay: as above; format: cell-based; conditions: Homo sapiens, SK-BR-3
[7] = test system: MCF-7; assay: as above; format: cell-based; conditions: Homo sapiens, MCF7
[8] = biological target: HSP90-p23 complex (Homo sapiens, UniProt P07900)
Protocol: For immunoprecipitation, 300 μg of total protein was immunoprecipitated with 5 μg of rat anti-HSP90α monoclonal antibody (SPA-840, clone 9D2, isotype: IgG2a; Assay Designs, Inc.). Proteins were resolved by 12% SDS-PAGE and transferred to PVDF membranes.

GI50 [1]: 17.4 ± 5.2 nM | GI50 [2]: 18.9 ± 4.8 nM | GI50 [3]: 29.5 ± 20.8 nM | GI50 [4]: 2060 nM | GI50 [5]: 1660 nM | GI50 [6]: 11.9 ± 8 nM | GI50 [7]: 69 ± 18.3 nM | amount of HSP90α co-immunoprecipitating with p23 [8]: concentration-dependent decrease | time to complete HSP90-p23 dissociation (full inhibition) [8]: ≤ 15 min
Compound: C=CCNC1=C2C[C@@H](C)C[C@H](OC)[C@H](O)[C@@H](C)/C=C(\C)[C@H](OC(N)=O)[C@@H](OC)/C=C\C=C(/C)C(=O)NC(=CC1=O)C2=O [17-AAG, 17-allylamino-17-demethoxygeldanamycin, reference compound]
